Data: patent EP1477174B1, “Radioactive arsenic-containing compounds and their uses in the treatment of tumors” (TTY Biopharm Company Limited, priority 2003, dated 2004)
“And” between values parts separate entries of the source, which are not always exact repeats. Equal entries are not always repeated.

Tests used:
[1] = system: relapsed acute promyelocytic leukemia; conditions: cited from earlier work
[2] = system: liver tumor; conditions: 2 mg/kg for 10 consecutive days (Lin et al. 1999); cited from earlier work
[3] = system: human cervical cancer cells; conditions: in vitro and in vivo, cervical cancer (Yong-Jin Chun et al. 2002); cited from earlier work
[4] = system: N1-S1 rat hepatoma cells; test: Therapeutic effect assessment: liver tumor direct injection, rats with liver tumors; format: in vivo, Spawn-Dawley rats; parameters: key to Response: Increase in Size of tumor (In%) is classified as "Poor Response"; decrease in size of tumorwithin 0%∼40% is classified as "MildResponse"; decrease in size of tumor to 50% or more or disappearance of tumor is classified as "Good Response."; conditions: for Response / Survival time: 0.45 mg/kg direct into liver tumor, single animals
Experimental: (§1) When cultured to 1.5x10^6 cell/ml, 4x10^6 cell/0.06ml of N1-S1 cells were sampled and then implanted into Spawn-Dawley male rats (5-week-old, 150g) between the liver and liver capsule by surgery, and the wounds were closed by sutures. Rearing of the rats was continued for ten days, and ultrasonic scanning was used to detect any growth of liver tumor and tumor size. After scanning, animals that had developed liver tumors were used to conduct the experiments of tumor growth inhibition, and euthanasia was practiced on the rest of the rats.
The rats with liver tumors were subjected to surgery. After the locations of the liver tumors were found, the tumors were directly injected with normal saline, an injection containing arsenic trioxide without neutron irradiation treatment (concentration: 1 mg/ml; animal injection dosage: 0.45 mg/kg), and the injection prepared in Example 1 which contained radioactive arsenic trioxide having subjected to neutron irradiation treatment (radiation activity range: 2.77-3.25 mCi/ml; concentration: 1 mg/ml of concentration; and animal injection dosage: 0.45 mg/kg), respectively, once every week, twice in total.
(§2) Before injection, the size of the liver tumors was examined by ultrasonic scanning. Ultrasonic scanning was conducted in the first week, the second week, and the fifth week, respectively, after start of the injection to observe the change in size of the tumor. Finally, the rats were sacrificed for observing whether there was metastasis.

[5] = system: N1-S1 rat hepatoma cells; test: Therapeutic effect assessment: hepatic artery single injection, rats with liver tumors; format: in vivo, Spawn-Dawley rats; conditions: for Therapeutic effect (in words): hepatic artery single injection
Experimental: as §1
The blood vessels of the hepatic artery were dissected from the hepatic tissue of the rats by surgery, and normal saline, an injection solution containing arsenic trioxide without neutron irradiation treatment (concentration: 1 mg/ml; and animal injection dosage: 0.45 mg/kg), and the injection solution prepared in Example 1 which contained radioactive arsenic trioxide having subjected to neutron irradiation treatment (radioactivity range: 2.77-3.25 mCi/ml; concentration: 1 mg/ml; and animal injection dosage: 0.45 mg/kg dose), were injected respectively via the hepatic artery in single injections.
as §2

[6] = system: N1-S1 rat hepatoma cells; test: Therapeutic effect assessment: continuous tail vein injection, rats with liver tumors; format: in vivo, Spawn-Dawley rats; parameters: key to Response: Increase in size of tumor (In%) is classified as "Poor Response"; decrease in size of tumorwithin 0%∼40% is classified as "MildResponse"; decrease in size of tumor to 50% or more or disappearance of tumor is classified as "Good Response."; conditions: for Response / Survival time: 0.45 mg/kg tail vein, continued for two weeks, single animals; for Effect on the inhibition of tumor growth (in words): continuous tail vein injection; for Survival of the rats (in words): tail vein injection, week 8
Experimental: as §1
The rats with liver tumors were given normal saline, an injection solution containing arsenic trioxide without neutron irradiation treatment (concentration: 1 mg/ml; animal injection dosage: 0.45 mg/kg), and the injection solution prepared in Example 1 which contained radioactive arsenic trioxide having subjected to neutron irradiation treatment(radioactivity range: 2.77-3.25 mCi/ml; concentration: 1 mg/ml; and animal injection dosage: 0.45 mg/kg), respectively, via tail vein injection, and the injection was continued for two weeks.
as §2, with “the injection so as to observe” for “the injection to observe”

[7] = Biodistribution test and radiation absorption dose (MIRD method) in rats with liver tumors; format: in vivo; conditions: for Radiation absorption dose, Intestine / Radiation absorption dose, Kidney / Radiation absorption dose, Liver / Radiation absorption dose, Lung / Radiation absorption dose, Muscle / Radiation absorption dose, Spleen / Radiation absorption dose, Tumor: 0.45 mg/kg
Experimental: The hepatic artery was dissected from the hepatic tissue of the rats by surgery. A PE-10 tube was introduced into the hepatic artery, and the test solution containing neutron-irradiated arsenic trioxide as prepared in Example 1 was injected into the hepatic artery. The PE-10 tube was removed after injection, and a surgical thread was used to bind and fix the blood vessels, followed by suturing of the wound.
The test injection solution containing neutron-irradiated arsenic trioxide as prepared in Example 1 was injected into the tail vein using a syringe with needle no. 25.
A fixed amount of radioactive arsenic trioxide (radioactivity range: 2.77-3.25 mCi/ml, concentration: 1 mg/ml, animal injection dose: 0.45 mg/kg) prepared in Example 1 was injected into the rats with liver tumors through the hepatic artery and tail vein, respectively.
The rats were sacrificed by taking a large amount of blood from the heart at hours 2, 4, 16, 24 and 48, respectively, after injection, and the blood, hearts, lungs, livers, spleens, kidneys, intestines, bladders, muscles, and tumors were removed. These tissues or organs were placed in respective tubes, and their irradiation intensity was measured by a gamma counter (Wallac 1470 WIZARD) . The content percentage of arsenic trioxide per each gram of the tissue or organ was calculated using standard curve regression. There were two or three experimented rats in each experimental group.
Radioactive arsenic trioxide was injected respectively into the tail vein and hepatic artery of the rats by I.V. and I.H. The dosage was calculated using MIRD method, and the residence time in each of the organs and the tumors was calculated using Excel software. Finally, the radiation absorption dose in each of the organs or tissues and the tumors was calculated using MIROSE 3 software. Table 3. Radiation absorption dose in each of the organs or tissues and the tumors after injection of radioactive arsenic trioxide into the animals through the tail vein and hepatic artery, respectively, by I.V. and I.H.

[8] = 0.45 mg/kg hepatic artery single injection, single animals

## S1[As]2S[As]3S[As]2S[As]13 [tetraarsenic tetraslfide]
[1]; other arsenic-containing substances (Wang Z.Y. 2001)
  complete remission rates: 84.9%

## arsenic trioxide [reference compound]
[2]
  life of the mice extended to: 127.2%
[1]; combination with other drugs (such as GM-CSF), relapsed or ATRA resistant acute promyelocytic leukemia (Muto A et al. 2001)
  Effect of combination with other drugs (in words): synergistic therapeutic effect
[1]; intravenously at a dose of 10 mg/d, relapsed acute promyelocytic leukemia (Shen Z.X. et al. 1997)
  complete remission (CR) rate: 90%
[1]; low-dose, intravenously, daily dose of 0.08 mg/kg for 28 days (Shen Y et al. 2001)
  complete remission rate: 80%
[3]
  Effect of combined treatment with ionizing radiation (in words): synergistic effect
[4]
  Response: Poor and Good (decrease in size of tumor to 50% or more or disappearance of tumor is classified as "Good Response.") and Mild (decrease in size of tumorwithin 0%∼40% is classified as "MildResponse")
  Survival time: >30 days
[5]; [8]
  Response: Mild (decrease in size of tumorwithin 0%∼40% is classified as "MildResponse") (2×) and Poor (2×)
  Survival time: >42 day (2×) and 36 day and 39 day
[5]
  Therapeutic effect (in words): not satisfactory
[6]
  Response: Poor (3×) and Mild (decrease in size of tumorwithin 0%∼40% is classified as "MildResponse") (2×)
  Survival time: 14 day (2×) and 42 day and 7 day and 40 day
  Effect on the inhibition of tumor growth (in words): not significant
  Survival of the rats (in words): still alive in week 8

## radioactive arsenic trioxide
[4]
  Response: Good (decrease in size of tumor to 50% or more or disappearance of tumor is classified as "Good Response.")
  Survival time: >30 days
[4]; direct injection into the liver tumors, 4 weeks
  Change of tumor size (in words): the tumors in all of the animals shrank
[5]; [8]
  Response: Good (decrease in size of tumor to 50% or more or disappearance of tumor is classified as "Good Response.")
  Survival time: >42 days
  Tumor size After injection Week 2: Disappeared
  Tumor size After injection Week 5: Disappeared
[5]
  Therapeutic effect (in words): complete disappearance of the tumors in some of the animals 2 weeks after injection
[7]; IH (hepatic artery)
  Radiation absorption dose, Intestine: 0.23 mGy/MBq
  Radiation absorption dose, Kidney: 0.28 mGy/MBq
  Radiation absorption dose, Liver: 0.21 mGy/MBq
  Radiation absorption dose, Lung: 0.56 mGy/MBq
  Radiation absorption dose, Muscle: 0.12 mGy/MBq
  Radiation absorption dose, Spleen: 0.95 mGy/MBq
  Radiation absorption dose, Tumor: 21 mGy/MBq
[7]; IV (tail vein)
  Radiation absorption dose, Intestine: 0.16 mGy/MBq
  Radiation absorption dose, Kidney: 0.25 mGy/MBq
  Radiation absorption dose, Liver: 0.13 mGy/MBq
  Radiation absorption dose, Lung: 0.47 mGy/MBq
  Radiation absorption dose, Muscle: 0.06 mGy/MBq
  Radiation absorption dose, Spleen: 0.76 mGy/MBq
  Radiation absorption dose, Tumor: 4.26 mGy/MBq
[7]; hepatic artery and tail vein injection, hours 2-48 (Figure 3)
  Contents of the radioactive arsenic trioxide in the heart, the lung, and the spleen: 1-3 % ID/g
[6]
  Response: Good (decrease in size of tumor to 50% or more or disappearance of tumor is classified as "Good Response.")
  Survival time: >56 days
  Effect on the inhibition of tumor growth (in words): most noticeable
  Survival of the rats (in words): all alive in week 8
